These results are taken from patent US8466088B2, “Herbicidal compositions containing benzoylpyrazole compounds” (Ishihara Sangyo Kaisha, Ltd., priority 2007, dated 2013).

In one assay the test system is crabgrass. As to the kind of experiment: Example 1: pot test, foliar treatment, visually observed growth inhibition of crabgrass. The assay is classed as in vivo.
For the next assay, the system named is velvetleaf. Kind of assay: Example 1: pot test, foliar treatment, visually observed growth inhibition of velvetleaf. The assay is classed as in vivo, Abutilon theophrasti MEDIC.
Another assay deals with various plants. As to the kind of experiment: Example 1: pot test, foliar treatment, visually observed growth inhibition of other sown plants (Tables 5-1 to 5-137). In kind it is in vivo. The settings on record: for Growth inhibition rate (%) of ivyleaf morningglory, Measured value: ivyleaf morningglory 1.5 to 2.1 leaf stage. An excerpt: When the herbicidal activity in a case where two active ingredients are combined, is larger than the simple sum of the respective herbicidal activities of the two active ingredients (the expected activity), it is called a synergistic effect. The activity expected by the combination of two active ingredients can be calculated as follows (Colby S. R., “Weed”, vol. 15, p. 20-22, 1967). E=α+β−(α×β+100) where
α: growth inhibition rate when treated with x (g/ha) of herbicide X,
β: growth inhibition rate when treated with y (g/ha) of herbicide Y,
E: growth inhibition rate expected when treated with x (g/ha) of herbicide X and y (g/ha) of herbicide Y.
That is, when the actual growth inhibition rate (measured value) is larger than the growth inhibition rate by the above calculation (calculated value), the activity by the combination can be regarded as showing a synergistic effect.
Upland field soil was put into a 1/1,000,000 hectare pot, and seeds of various plants were sown. When the respective plants reached predetermined leaf stage, herbicidal compositions in predetermined amounts were diluted with water in an amount corresponding to 300 L/ha and applied for foliar treatment by a small sprayer.
On the 14th to 28th day after application, the state of growth of the respective plants was visually observed to determine the growth inhibition rate (measured value) in accordance with the following evaluation standard. Further, in accordance with the above Colby's formula, the growth inhibition rate (calculated value) was calculated. In Tables, with respect to the compound A, Compound Nos. in Table 1 or 3 are described, and with respect to other herbicidal compounds, common names are described.

The mark [1] stands for this setting: 3.2 to 4.3 leaf stage, 21st day after application, 15 g/ha.

Where two headings read alike, the source gives them in different places.

Consider `COCCOc1c(S(C)(=O)=O)ccc(C(=O)c2cnn(C)c2OC(=O)SC(C)(C)C)c1C` [No. 241], for which the “Growth inhibition rate (%) of crabgrass, Measured value” was found to be 90% in the assay on crabgrass (3.1 to 4.0 leaf stage, 22nd day after application, 15 g/ha); 94% with crabgrass (3.2 to 4.1 leaf stage, 14th day after application, 15 g/ha); 80% with crabgrass (3.2 to 4.1 leaf stage, 21st day after application, 7 g/ha); 93% in the assay on crabgrass (3.2 to 4.1 leaf stage, 21st day after application, 15 g/ha); 93% in the assay on crabgrass (3.2 to 4.3 leaf stage, 14th day after application, 15 g/ha); 88% with crabgrass (setting [1]). In addition, the “Growth inhibition rate (%) of crabgrass, Measured value” was found to be 75% in the assay with crabgrass (3.3 to 4.2 leaf stage, 24th day after application, 15 g/ha); 90% with crabgrass (3.5 to 4.2 leaf stage, 14th day after application, 15 g/ha); 30% with crabgrass (3.5 to 4.2 leaf stage, 20th day after application, 1.875 g/ha); 68% in the assay on crabgrass (3.5 to 4.2 leaf stage, 20th day after application, 3.75 g/ha); 80% in the assay with crabgrass (3.7 to 4.6 leaf stage, 21st day after application, 7 g/ha); 94% in the assay on crabgrass (3.7 to 4.6 leaf stage, 21st day after application, 15 g/ha). Also, the “Growth inhibition rate (%) of crabgrass, Measured value” in the assay with crabgrass (4.0 to 5.0 leaf stage, 21st day after application, 7 g/ha) turned out to be 60%; in the assay with crabgrass (4.0 to 5.0 leaf stage, 21st day after application, 15 g/ha), 80%. Besides, the “Growth inhibition rate (%) of velvetleaf, Measured value” in the assay on velvetleaf (2.5 to 3.3 leaf stage, 21st day after application, 7 g/ha) is 65%; in the assay with velvetleaf (2.5 to 3.3 leaf stage, 21st day after application, 15 g/ha), 80%; in the assay on velvetleaf (2.6 to 3.3 leaf stage, 20th day after application, 7 g/ha) it was 70%; with velvetleaf (2.8 to 3.6 leaf stage, 24th day after application, 3.75 g/ha), 45%; in the assay with velvetleaf (3.0 to 4.0 leaf stage, 21st day after application, 7 g/ha) it was 60%; with velvetleaf (3.0 to 4.0 leaf stage, 21st day after application, 15 g/ha), 80%. The “Growth inhibition rate (%) of velvetleaf, Measured value” in the assay on velvetleaf (setting [1]) was 85%; in the assay on velvetleaf (3.3 to 4.3 leaf stage, 20th day after application, 3.75 g/ha) it was 45%; in the assay with velvetleaf (3.3 to 4.3 leaf stage, 20th day after application, 15 g/ha), 80%; with velvetleaf (4.0 to 4.4 leaf stage, 22nd day after application, 15 g/ha) it was 97%. For the same compound, the “Growth inhibition rate (%) of ivyleaf morningglory, Measured value” with various plants (14th day after application, 75 g/ha) is reported as 88%; with various plants (23rd day after application, 100 g/ha), 85%. In addition, the “Growth inhibition rate (%) of prickly sida, Measured value” amounted to 60% in the assay on various plants (prickly sida 2.1 to 3.1 leaf stage, 20th day after application, 50 g/ha) and 60% in the assay on various plants (prickly sida 2.1 to 3.1 leaf stage, 20th day after application, 100 g/ha).
A word on the inhibition: it is the drop in the measured response relative to a control, in per cent. As to `CCNc1nc(Cl)nc(NC(C)(C)C)n1` [Terbuthylazine, terbuthylazine, reference compound], the inhibition at 175 g/ha in the assay with crabgrass (Digitaria sanguinalis, foliar, 3.1 to 4.0 leaf stage, 22nd day after application, 175 g/ha, read-out: Growth inhibition rate (%) of crabgrass, Measured value) is 0%; in the assay with velvetleaf (Abutilon theophrasti, foliar, 4.0 to 4.4 leaf stage, 22nd day after application, 175 g/ha, read-out: Growth inhibition rate (%) of velvetleaf, Measured value), 15%. The inhibition at 375 g/ha with crabgrass (Digitaria sanguinalis, foliar, 3.1 to 4.0 leaf stage, 22nd day after application, 375 g/ha, read-out: Growth inhibition rate (%) of crabgrass, Measured value) worked out at 0%; in the assay with velvetleaf (Abutilon theophrasti, foliar, 3.3 to 4.3 leaf stage, 20th day after application, read-out: Growth inhibition rate (%) of velvetleaf, Measured value), 20%; in the assay on velvetleaf (Abutilon theophrasti, foliar, 4.0 to 4.4 leaf stage, 22nd day after application, read-out: Growth inhibition rate (%) of velvetleaf, Measured value), 25%. Also, the inhibition at 250 g/ha in the assay on crabgrass (Digitaria sanguinalis, foliar, 3.2 to 4.3 leaf stage, on the 22nd day after application, foliar, active ingredient amount 250 g/ha, read-out: Growth inhibition rate (%) of crabgrass, Measured value) was 20%; in the assay on crabgrass (Digitaria sanguinalis, foliar, 4.3 to 4.5 leaf stage, 20th day after application, 250 g/ha, read-out: Growth inhibition rate (%) of crabgrass, Measured value), 0%; in the assay on various plants (foliar, prickly sida 2.1 to 3.1 leaf stage, 20th day after application, 250 g/ha, read-out: Growth inhibition rate (%) of prickly sida, Measured value) it was 15%. The inhibition at 125 g/ha in the assay on crabgrass (Digitaria sanguinalis, foliar, 3.5 to 4.0 leaf stage, 21st day after application, read-out: Growth inhibition rate (%) of crabgrass, Measured value) was 0%; in the assay on crabgrass (Digitaria sanguinalis, foliar, 4.3 to 4.5 leaf stage, 20th day after application, read-out: Growth inhibition rate (%) of crabgrass, Measured value), 0%; in the assay on velvetleaf (Abutilon theophrasti, foliar, 2.0 to 2.5 leaf stage, 21st day after application, 125 g/ha, read-out: Growth inhibition rate (%) of velvetleaf, Measured value) it was 0%; with velvetleaf (Abutilon theophrasti, foliar, 2.4 to 3.2 leaf stage, on the 22nd day after application, foliar, active ingredient amount 125 g/ha, read-out: Growth inhibition rate (%) of velvetleaf, Measured value), 5%; in the assay on velvetleaf (Abutilon theophrasti, foliar, 3.0 to 3.5 leaf stage, 20th day after application, 125 g/ha, read-out: Growth inhibition rate (%) of velvetleaf, Measured value), 0%; in the assay on various plants (foliar, prickly sida 2.1 to 3.1 leaf stage, 20th day after application, 125 g/ha, read-out: Growth inhibition rate (%) of prickly sida, Measured value), 0%. Also, in the assay with velvetleaf (Abutilon theophrasti, foliar, 2.8 to 3.6 leaf stage, 24th day after application, 2000 g/ha, read-out: Growth inhibition rate (%) of velvetleaf, Measured value), the inhibition at 2000 g/ha came to 20%. The inhibition at 750 g/ha in the assay with velvetleaf (Abutilon theophrasti, foliar, 3.3 to 4.3 leaf stage, 20th day after application, 750 g/ha, read-out: Growth inhibition rate (%) of velvetleaf, Measured value) stood at 30%. Moreover, the inhibition at 45 g/ha in the assay with various plants (foliar, prickly sida 2.1 to 3.1 leaf stage, 20th day after application, 45 g/ha, read-out: Growth inhibition rate (%) of prickly sida, Measured value) stood at 0%. The inhibition at 63 g/ha in the assay with various plants (foliar, prickly sida 2.1 to 3.1 leaf stage, 20th day after application, 63 g/ha, read-out: Growth inhibition rate (%) of prickly sida, Measured value) came out at 0%. In addition, in the assay with various plants (foliar, prickly sida 2.1 to 3.1 leaf stage, 20th day after application, 500 g/ha, read-out: Growth inhibition rate (%) of prickly sida, Measured value), the inhibition at 500 g/ha turned out to be 55%.
